Active and inactive are the calls of the source. No cut-off for these calls is given here.
Legend:
[1] = AUC (0-infinity) in Sprague-Dawley rat at 60 mg/kg,po measured at 0.25 to 24 hrs post administration by LC-MS/MS analysis; format: ADME, organism-based; design: dose 60 mg/kg, time 0.25-24 hrs, route po; details: in vivo
PC-12 [2] = assay: Neuroprotective activity against amyloid beta (25 to 35)-induced rat PC12 cells assessed as decrease in NF-kappaB phosphorylation level at 7.5 to 30 uM preincubated for 30 mins followed by amyloid beta (25 to 35) addition and measured after 24 hrs by western blot assay; format: functional, cell-based; details: dose 7.5-30 µM, time 24.5 hrs
Mus musculus [3] = assay: Antialzheimer activity against amyloid beta (25 to 35)-induced brain injury ICR mouse model assessed as attenuation of pathological change in cerebral cortex at 12.5 to 50 mg/kg,po administrated for 21 days by hematoxylin and eosin staining based microscopic analysis; format: functional, organism-based; details: dose 12.5-50 mg/kg, time 21.0 day
PC-12 [4] = assay: Neuroprotective activity against amyloid beta (25 to 35)-induced rat PC12 cells assessed as decrease in p38 phosphorylation level at 7.5 to 30 uM preincubated for 30 mins followed by amyloid beta (25 to 35) addition and measured after 24 hrs by western blot assay; format: functional, cell-based; details: dose 7.5-30 µM, time 24.5 hrs
Mus musculus [5] = assay: Antialzheimer activity against amyloid beta (25 to 35)-induced cognitive deficit ICR mouse model assessed as increase in preferential index at 50 mg/kg,po observed after 24 hrs of administration by novel object recognition test; format: functional, organism-based
[6] = Permeability of the compound incubated for 4 hrs by PAMPA-BBB assay based HPLC analysis
Mus musculus [7] = assay: Antialzheimer activity against amyloid beta (25 to 35)-induced cognitive deficit ICR mouse model assessed as attenuation of behavioral deficit at 50 mg/kg,po observed after 12 to 15 days of administration by Y maze test; format: functional, organism-based; details: time 12-15 day
PC-12 [8] = assay: Cytotoxicity against rat PC12 cells assessed as effect on survival at < 60 uM incubated for 24 hrs by MTT assay; format: toxicity, cell-based; details: pc-12, 24 h
PC-12 [9] = assay: Neuroprotective activity against rat PC12 cells assessed as reduction in amyloid beta (25 to 35)-induced cytotoxicity at 15 uM incubated for 4 hrs followed by amyloid beta (25 to 35) treatment for 24 hrs by MTT assay relative to control; format: functional; design: scale not given: the % may be the effect or the level left; details: time 28 hrs
[10] = AUC (0-infinity) in Sprague-Dawley rat at 10 mg/kg,iv measured at 0.083 to 24 hrs post administration by LC-MS/MS analysis; format: ADME, organism-based; design: dose 10 mg/kg, time 0.083-24 hrs, route iv; details: in vivo
Mus musculus [11] = assay: Antialzheimer activity against amyloid beta (25 to 35)-induced cognitive deficit ICR mouse model assessed as increase in preferential index at 25 mg/kg,po observed after 24 hrs of administration by novel object recognition test; format: functional, organism-based
Mus musculus [12] = assay: Antialzheimer activity against amyloid beta (25 to 35)-induced cognitive deficit ICR mouse model assessed as increase in preferential index at 25 mg/kg,po observed after 1 hr of administration by novel object recognition test; format: functional, organism-based
Mus musculus [13] = assay: Antialzheimer activity against amyloid beta (25 to 35)-induced brain injury ICR mouse model assessed as attenuation of pathological change in hippocampal CAl region at 12.5 to 50 mg/kg,po administrated for 21 days by hematoxylin and eosin staining based microscopic analysis; format: functional, organism-based; details: dose 12.5-50 mg/kg, time 21.0 day
PC-12 [14] = assay: Neuroprotective activity against rat PC12 cells assessed as reduction in amyloid beta (25 to 35)-induced cytotoxicity incubated for 4 hrs followed by amyloid beta (25 to 35) treatment for 24 hrs by MTT assay; format: functional, cell-based
[15] = molecular target: Amyloid-beta precursor protein (Homo sapiens) (UniProt P05067); assay: Disaggregation of amyloid beta (25 to 35) (unknown origin) self aggregation at 15 uM incubated for 24 hrs by transmission electron microscopy analysis
Mus musculus [16] = assay: Antialzheimer activity against amyloid beta (25 to 35)-induced cognitive deficit ICR mouse model assessed as increase in discrimination index at 25 mg/kg,po observed after 24 hrs of administration by novel object recognition test; format: functional, organism-based
PC-12 [17] = assay: Neuroprotective activity against amyloid beta (25 to 35)-induced rat PC12 cells assessed as decrease in beta-secretase protein expression level at 3.75 to 30 uM incubated for 30 mins followed by amyloid beta (25 to 35) addition and measured after 24 hrs by ELISA; format: functional, cell-based; details: dose 3.75-30 µM, time 24.5 hrs
[18] = Toxicity in ICR mouse assessed as pathological changes in heart at 12.5 to 50 mg/kg,po administrated for 20 days by hematoxylin and eosin staining based microscopic analysis; format: organism-based; details: in vivo, 480 h, dose 12.5-50 mg/kg, time 20 day
PC-12 [19] = assay: Neuroprotective activity against amyloid beta (25 to 35)-induced rat PC12 cells assessed as decrease in JNK expression level at 7.5 to 30 uM preincubated for 30 mins followed by amyloid beta (25 to 35) addition and measured after 24 hrs by western blot assay; format: functional, cell-based; details: dose 7.5-30 µM, time 24.5 hrs
HepG2 [20] = assay: Cytotoxicity against human HepG2 cells assessed as effect on survival at < 60 uM incubated for 24 hrs by MTT assay; format: toxicity, cell-based; details: hepg2, 24 h
PC-12 [21] = assay: Neuroprotective activity against rat PC12 cells assessed as reduction in amyloid beta (25 to 35)-induced cytotoxicity at 2.67 to 91.27 uM incubated for 4 hrs followed by amyloid beta (25 to 35) treatment for 24 hrs by MTT assay relative to control; format: functional; design: scale not given: the % may be the effect or the level left; details: dose 2.67-91.27 µM, time 28 hrs
[22] = Cytotoxicity against mouse Neuro2a cells assessed as cell viability at 120 uM incubated for 24 hrs by MTT assay; format: toxicity, cell-based; details: Neuro2a (N2a) cells, read-out: Activity
[23] = Tmax in Sprague-Dawley rat at 60 mg/kg,po measured at 0.25 to 24 hrs post administration by LC-MS/MS analysis; format: ADME, organism-based; details: in vivo, time 0.25-24 hrs
Mus musculus [24] = assay: Antialzheimer activity against amyloid beta (25 to 35)-induced cognitive deficit ICR mouse model assessed as increase in discrimination index at 50 mg/kg,po observed after 1 hr of administration by novel object recognition test; format: functional, organism-based
HepG2 [25] = assay: Cytotoxicity against human HepG2 cells assessed as decrease in cell viability at 120 uM incubated for 24 hrs by MTT assay; format: toxicity, cell-based; details: hepg2, 24 h
Mus musculus [26] = assay: Antialzheimer activity against amyloid beta (25 to 35)-induced brain injury ICR mouse model assessed as attenuation of pathological change in hippocampal CA3 region at 12.5 to 50 mg/kg,po administrated for 21 days by hematoxylin and eosin staining based microscopic analysis; format: functional, organism-based; details: dose 12.5-50 mg/kg, time 21.0 day
PC-12 [27] = assay: Neuroprotective activity against amyloid beta (25 to 35)-induced rat PC12 cells assessed as decrease in NF-kappaB expression level at 7.5 to 30 uM preincubated for 30 mins followed by amyloid beta (25 to 35) addition and measured after 24 hrs by western blot assay; format: functional, cell-based; details: dose 7.5-30 µM, time 24.5 hrs
PC-12 [28] = assay: Neuroprotective activity against amyloid beta (25 to 35)-induced rat PC12 cells assessed as decrease in intracellular ROS level at 7.5 uM incubated for 24 hrs by DCFH-DA staining based flow cytometry assay; format: functional, cell-based
Mus musculus [29] = assay: Antialzheimer activity against amyloid beta (25 to 35)-induced spatial memory deficit ICR mouse model assessed as increase in distance travelled in target quadrant at 50 mg/kg,po observed at 16 to 20 days of administration by morris water maze test; format: functional, organism-based; details: time 16-20 day
[30] = Toxicity in ICR mouse assessed as pathological changes in liver at 12.5 to 50 mg/kg,po administrated for 20 days by hematoxylin and eosin staining based microscopic analysis; format: organism-based; details: in vivo, 480 h, dose 12.5-50 mg/kg, time 20 day

Amyloid-beta precursor protein (Homo sapiens), sequence (P05067 whole entry): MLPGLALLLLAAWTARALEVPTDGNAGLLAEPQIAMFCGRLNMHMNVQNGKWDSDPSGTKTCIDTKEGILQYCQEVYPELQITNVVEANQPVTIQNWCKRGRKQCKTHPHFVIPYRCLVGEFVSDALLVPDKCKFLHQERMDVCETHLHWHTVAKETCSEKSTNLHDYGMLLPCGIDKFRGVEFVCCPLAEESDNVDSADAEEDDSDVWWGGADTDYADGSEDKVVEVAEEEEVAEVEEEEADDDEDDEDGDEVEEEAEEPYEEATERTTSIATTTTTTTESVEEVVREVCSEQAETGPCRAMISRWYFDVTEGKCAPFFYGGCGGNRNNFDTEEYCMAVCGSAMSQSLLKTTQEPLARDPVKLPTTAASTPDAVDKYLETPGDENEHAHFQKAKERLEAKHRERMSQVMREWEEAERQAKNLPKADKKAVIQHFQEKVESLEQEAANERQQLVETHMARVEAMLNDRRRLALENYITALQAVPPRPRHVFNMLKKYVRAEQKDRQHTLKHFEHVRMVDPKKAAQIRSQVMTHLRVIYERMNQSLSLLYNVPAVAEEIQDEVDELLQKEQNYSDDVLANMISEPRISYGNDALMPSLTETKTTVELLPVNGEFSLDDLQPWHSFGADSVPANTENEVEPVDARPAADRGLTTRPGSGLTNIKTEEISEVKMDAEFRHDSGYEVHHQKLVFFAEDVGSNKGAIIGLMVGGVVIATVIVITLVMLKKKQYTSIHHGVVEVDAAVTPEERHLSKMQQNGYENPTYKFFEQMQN

- AUC(0-inf) [1]: 326 ng·h/mL
- Papp at 4 h [6]: 26.1 ×10⁻⁶ cm/s
- AUC(0-inf) [10]: 40700 ng·h/mL
- Activity [15]: Active
- Tmax [23]: 1.33 h
Compound: CC1(C)CCC[C@](C)([C@H]2CC[C@]3(C)[C@@H]2[C@H](O)C[C@@H]2[C@@]4(C)CC[C@H](OC(=O)NCc5ccccc5)C(C)(C)[C@@H]4CC[C@]23C)O1
- Activity (PC-12 [2]): Active
- Activity (Mus musculus [3]): Active
- Activity (PC-12 [4]): Active
- Activity (Mus musculus [5]): Active
- Activity (Mus musculus [7]): Active
- Activity (PC-12 [8]): Non-Toxic
- Activity (PC-12 [9]): 73.01%
- Activity (Mus musculus [11]): Active
- Activity (Mus musculus [12]): inactive
- Activity (Mus musculus [13]): Active
- EC50 (PC-12 [14]): 13.2 µM
- Activity (Mus musculus [16]): Active
- Activity (PC-12 [17]): Active
- Activity [18]: Non-Toxic
- Activity (PC-12 [19]): Active
- Activity (HepG2 [20]): Non-Toxic
- Activity (PC-12 [21]): 14.89%
- viability at 24 h, 120 µM [22]: > 50%
- Activity (Mus musculus [24]): inactive
- Activity (HepG2 [25]): Toxic
- Activity (Mus musculus [26]): Active
- Activity (PC-12 [27]): Active
- Activity (PC-12 [28]): Active
- Activity (Mus musculus [29]): Active
- Activity [30]: Non-Toxic

— ChEMBL document CHEMBL5247626, “In vitro and in vivo biological evaluation of newly synthesized multi-target 20(R)-panaxadiol derivatives for treating Alzheimer's disease” (Eur J Med Chem, 2022)
